Test results taken from PMC5615911 (Toxicology Reports, 2016).
Several values for one entry are separate records, joined by “and”; a condition that tells them apart may be missing. Equal values may be shown once.

What was measured:
human umami receptor = conditions: cited from earlier work
[1] = 90-day subchronic toxicity study; assay type: in vivo, Sprague-Dawley rats
[2] = Pharmacokinetics of S3643, single iv or oral dose; assay type: in vivo, Sprague-Dawley rats; conditions: for AUC(0-t): AUClast
[3] = 10, 30, 100 mg/kg bw/day (food ad-mix)
[4] = female, Sprague-Dawley, rat, plasma, iv, 1 mg/kg
[5] = female, Sprague-Dawley, rat, plasma, po
[6] = female, Sprague-Dawley, rat, plasma, po, 10 mg/kg
[7] = female, Sprague-Dawley, rat, plasma, po, 30 mg/kg
[8] = female, Sprague-Dawley, rat, plasma, po, 100 mg/kg
[9] = female, iv 1.0 mg/kg bw, 1 mg/kg
[10] = male, Sprague-Dawley, rat, plasma, iv, 1 mg/kg
[11] = male, Sprague-Dawley, rat, plasma, po
[12] = male, Sprague-Dawley, rat, plasma, po, 10 mg/kg
[13] = male, Sprague-Dawley, rat, plasma, po, 30 mg/kg
[14] = male, Sprague-Dawley, rat, plasma, po, 100 mg/kg

## COc1cccc(-c2n[nH]c(SCc3ccccn3)n2)c1OC [S3643, 2-(((3-(2,3-dimethoxyphenyl)-1H-1,2,4-triazol-5-yl)thio)methyl)pyridine]
Human umami receptor
  Concentration lower than MSG for equivalent umami flavour effect: 1000 fold
[1]; [3]
  Findings, adverse effects: No adverse test-article related findings
  Findings, body weight: Lower body weight gain in females at 100 mg/kg/day
[1]; 90 days in diet, male and female rats, highest dose tested
  NOAEL: 100 mg/kg bw/day
[1]; females, 100 mg/kg bw/day, beginning at Week 5
  Mean body weight lower than controls: 7%
[1]; males, 100 mg/kg bw/day
  Absolute liver weight increase vs control: 12.5%
  Liver/body weight increase vs control: 14.1%
  Liver/brain weight increase vs control: 13.5%
[1]; rat, in vivo
  Margin of safety (NOAEL vs per capita intake 5 μg/kg bw/day): > 20,000 fold
[2]; female
  Fold increase in AUClast for 10-fold increase in oral dose: 16.8 fold
[2]; [4]
  Tmax: 1.8 min
  Vd: 0.325 L/kg
  clearance: 8.03 mL/min/kg
  half-life: 9.6 min
[2]; [5]
  bioavailability: 67.4 to 116%
  half-life: 53.4 to 99.6 min
[2]; [6]
  Tmax: 15 min
  bioavailability: 67.4%
  half-life: 53.4 min
[2]; female, Sprague-Dawley, rat, plasma, po, 10 mg/kg, oral 10 mg/kg bw
  AUC(0-t): 14200 ng·h/mL
[2]; female, Sprague-Dawley, rat, plasma, po, 10 mg/kg, Cmax, oral 10 mg/kg bw
  Cmax: 14900 ng/mL
[2]; [7]
  Tmax: 15 min
  bioavailability: 116%
  half-life: 68.4 min
[2]; female, Sprague-Dawley, rat, plasma, po, 30 mg/kg, oral 30 mg/kg bw
  AUC(0-t): 73500 ng·h/mL
[2]; female, Sprague-Dawley, rat, plasma, po, 30 mg/kg, Cmax, oral 30 mg/kg bw
  Cmax: 45400 ng/mL
[2]; [8]
  Tmax: 22.8 min
  bioavailability: 113%
  half-life: 99.6 min
[2]; female, Sprague-Dawley, rat, plasma, po, 100 mg/kg, oral 100 mg/kg bw
  AUC(0-t): 239000 ng·h/mL
[2]; female, Sprague-Dawley, rat, plasma, po, 100 mg/kg, Cmax, oral 100 mg/kg bw
  Cmax: 98900 ng/mL and 310 µM
[2]; female, iv
  CL as % of hepatic blood flow: 14.5%
  Vss as % of total body water volume: 48.6%
[2]; female, iv 1.0 mg/kg bw
  AUC0-last/dose: 2110 ng·h/mL/mg/kg
[2]; [9]
  AUC0-last: 2110 ± 353 ng·h/mL
  Cmax: 9840 ± 1880 ng/mL
[2]; female, oral gavage 10 mg/kg bw
  AUC0-last/dose: 1423 ng·h/mL/mg/kg
[2]; female, oral gavage 30 mg/kg bw
  AUC0-last/dose: 2450 ng·h/mL/mg/kg
[2]; female, oral gavage 100 mg/kg bw
  AUC0-last/dose: 2393 ng·h/mL/mg/kg
[2]; iv 1 mg/kg
  Female/male ratio of mean AUClast: 0.76
  Female/male ratio of mean Cmax: 0.91
[2]; male
  Fold increase in AUClast for 10-fold increase in oral dose: 6.88 fold
[2]; [10]
  Tmax: 1.8 min
  Vd: 0.337 L/kg
  clearance: 5.97 mL/min/kg
  half-life: 11.4 min
[2]; [11]
  bioavailability: 65.7 to 96%
  half-life: 48 to 99.6 min
[2]; [12]
  Tmax: 15 min
  bioavailability: 95.5%
  half-life: 48 min
[2]; male, Sprague-Dawley, rat, plasma, po, 10 mg/kg, oral 10 mg/kg bw
  AUC(0-t): 26600 ng·h/mL
[2]; male, Sprague-Dawley, rat, plasma, po, 10 mg/kg, Cmax, oral 10 mg/kg bw
  Cmax: 32500 ng/mL
[2]; [13]
  Tmax: 26.4 min
  bioavailability: 96%
  half-life: 58.2 min
[2]; male, Sprague-Dawley, rat, plasma, po, 30 mg/kg, oral 30 mg/kg bw
  AUC(0-t): 80300 ng·h/mL
[2]; male, Sprague-Dawley, rat, plasma, po, 30 mg/kg, Cmax, oral 30 mg/kg bw
  Cmax: 50900 ng/mL
[2]; [14]
  Tmax: 18.6 min
  bioavailability: 65.7%
  half-life: 99.6 min
[2]; male, Sprague-Dawley, rat, plasma, po, 100 mg/kg, oral 100 mg/kg bw
  AUC(0-t): 183000 ng·h/mL
[2]; male, Sprague-Dawley, rat, plasma, po, 100 mg/kg, Cmax, oral 100 mg/kg bw
  Cmax: 78300 ng/mL and 238 µM
[2]; male, iv
  CL as % of hepatic blood flow: 10.8%
  Vss as % of total body water volume: 50.4%
[2]; male, iv 1.0 mg/kg bw
  AUC0-last/dose: 2790 ng·h/mL/mg/kg
[2]; male, iv 1.0 mg/kg bw, 1 mg/kg
  AUC0-last: 2790 ± 187 ng·h/mL
  Cmax: 10870 ± 1870 ng/mL
[2]; male, oral gavage 10 mg/kg bw
  AUC0-last/dose: 2665 ng·h/mL/mg/kg
[2]; male, oral gavage 10 mg/kg bw, 10 mg/kg
  Cmax: 32510 ± 7710 ng/mL
[2]; male, oral gavage 30 mg/kg bw
  AUC0-last/dose: 2678 ng·h/mL/mg/kg
[2]; male, oral gavage 100 mg/kg bw
  AUC0-last/dose: 1833 ng·h/mL/mg/kg
